# Measurements: patent US8153116B2, “Use of conditional plasmodium strains lacking an essential gene in malaria vaccination” (University of Connecticut, priority 2006, dated 2012)
# Test system: wild type, pfpmtΔ+PfPMT and pfpmtΔ parasites
# Experiment: TUNEL assay of drug-treated parasites
# Type: cell-based, Plasmodium falciparum
# Details: 100 nM, 24 h
# Description: The terminal deoxynucleotidyl transferase (TdT) dUTP nick end labeling (TUNEL) kit (Roche) was used to detect apoptotic cells following the manufacturer's instructions, with some modifications. Briefly, asynchronous cultures were grown to 10% parasitemia and 1 ml of the culture aliquots were washed twice with PBS and the cell count adjusted to 1×10^6 cells/ml. Fixation was achieved by resuspending the cells in 2% paraformaldehyde solution in PBS and incubated at room temperature for 1 h. The fixed cells were washed twice with PBS, resuspended in 100 μl of 0.1% Triton X-100 in 0.1% sodium citrate solution, and incubated for 2 min on ice. Cells were then washed twice in PBS and kept on ice until labeling. A positive control sample was prepared by incubating fixed and permeabilized cells with 3000 U/ml of DNase I for 15 min at room temperature followed by two washes with PBS. To label the cells, 50 μl of the TUNEL reaction mixture was added to the cell pellet and mixed gently. A negative control sample was included by treating fixed, permeabilized cells with the labeling solution in, the absence of the terminal TdT enzyme. The reaction mixtures were incubated in the dark at 37° C. for 1 h and then washed twice in PBS and resuspended in 250 μl PBS. Cells were analyzed by fluorescence microscopy at 525 nm wavelength with the FITC filter. […]
smiles,measurement,value
CCN(CC)CCCC(C)Nc1ccnc2cc(Cl)ccc12 (stereo not shown) [chloroquine],TUNEL staining of drug-treated parasites,positively stained with TUNEL
